Patent publication US6613806B1, “Enhancement of the efficacy of benzoylbenzenes” (BASF Corporation, priority 1999, dated 2003)

Legend:
Format in all cases: in vivo
[1] = test system: Blumeria graminis f.sp. tritici; assay: Greenhouse wheat powdery mildew (WPM) 4 day residual disease control; settings: adjuvant alone, NOP 1000 ppm, BB-4 0 ppm
Description: (§1) Greenhouse Evaluations for Fungicidal Efficacy Disease: Wheat powdery mildew (WPM). Pathogen: Blumeria graminis f.sp. tritici Test Procedure: 1. Wheat seed is planted in plastic pots and maintained in the greenhouse. 2. When the primary leaf (wheat) is fully expanded, formulated test compounds and adjuvants are sprayed with a single nozzle overhead track sprayer at a rate of 200 l/ha. Plants are then allowed to air-dry. 3. Inoculation precedes treatment by 2 days in the case of curative evaluations and follows treatment by 3-4 days in case of residual evaluations. For inoculation, plants are set up on greenhouse benches with bottom watering mats and inoculated by dusting them with conidia from powdery mildew infected plants (stock cultures at an age of 10-14 days). Between inoculation and treatment for curative evaluations and between treatment and inoculation for residual evaluations, plants are maintained in the greenhouse with bottom watering. 4. Disease on the primary leaf (wheat) as percent leaf area with disease symptoms/signs is evaluated about 7 days after inoculation. In the case of wheat, the tips and bases of the leaves are excluded from the evaluation. Percent disease control is then calculated by the following is formula: [formula] Formulation, Reference Compounds and Controls: 1. Formulated compounds are diluted using deionized water. 2. […]

[2] = test system: Blumeria graminis f.sp. tritici; assay: Greenhouse wheat powdery mildew (WPM) 2 day curative disease control; settings: Table I; adjuvant alone, NOP 1000 ppm, BB-4 0 ppm
Description: as §1

[3] = test system: Blumeria graminis f.sp. tritici; assay: Greenhouse wheat powdery mildew (WPM) antisporulation test; parameters: key: +++: complete (no spore release); ++: strong; +: moderate; none; settings: Table III; adjuvant alone, NOP 1000 ppm, BB-4 0 ppm
Description: Greenhouse Evaluations for Fungicidal Efficacy Disease: Wheat powdery mildew (WPM). Pathogen: Blumeria graminis f.sp. tritici Test Procedure: 1. Wheat seed is planted in plastic pots and maintained in the greenhouse. 2. When the primary leaf (wheat) is fully expanded, formulated test compounds and adjuvants are sprayed with a single nozzle overhead track sprayer at a rate of 200 l/ha. Plants are then allowed to air-dry. 3. Inoculation precedes treatment by 2 days in the case of curative evaluations and follows treatment by 3-4 days in case of residual evaluations. For inoculation, plants are set up on greenhouse benches with bottom watering mats and inoculated by dusting them with conidia from powdery mildew infected plants (stock cultures at an age of 10-14 days). Between inoculation and treatment for curative evaluations and between treatment and inoculation for residual evaluations, plants are maintained in the greenhouse with bottom watering. In antisporulation tests, inoculation preceeds compound application by three days. Scale for Anti-Sporulation Effect: +++=complete (no spore release); ++=strong; +=moderate; o=none.

## CCCCCCCCN1CCCC1=O [NOP, N-octylpyrrolidone]
[1]; Table I
  WPM 4 day Residual Disease Control (%): 9%
[1]; Table III
  WPM 4 day Residual Disease Control (%): 0%
[2]
  WPM 2 day Curative Disease Control (%): 14%
[3]
  WPM Antisporulation Effect: o
